According to publication PMC8341778, “Deciphering the substrate recognition mechanisms of the heparan sulfate 3-O-sulfotransferase-3” (RSC Chemical Biology, 2021):

Experiments:
3-OST-3 [1] = biological target: T1, 3-OST-3 (Homo sapiens, UniProt Q9Y663); assay: crystal structure of ternary complex, […] Å; type: binding; settings: with PAP; sodium ion at saccharides f and g
T1 construct: gene HS3ST3A1; purified enzyme; two molecules in the asymmetric unit
T1 sequence (Q9Y663 1-406): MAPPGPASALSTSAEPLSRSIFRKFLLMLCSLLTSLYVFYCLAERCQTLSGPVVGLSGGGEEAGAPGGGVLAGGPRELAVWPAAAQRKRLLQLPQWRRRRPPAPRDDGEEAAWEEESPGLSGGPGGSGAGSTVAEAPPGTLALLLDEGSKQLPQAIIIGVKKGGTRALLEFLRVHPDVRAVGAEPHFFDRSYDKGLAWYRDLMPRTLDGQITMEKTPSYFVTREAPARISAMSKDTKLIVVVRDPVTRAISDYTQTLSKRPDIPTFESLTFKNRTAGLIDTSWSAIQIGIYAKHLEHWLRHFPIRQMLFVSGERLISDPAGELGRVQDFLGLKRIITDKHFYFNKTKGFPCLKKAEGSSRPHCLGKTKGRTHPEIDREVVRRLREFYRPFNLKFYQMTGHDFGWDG

3-OST-3 [2] = biological target: T1, 3-OST-3; assay: inhibition of sulfotransferase activity; type: biochemical
3-OST-3 [3] = biological target: T1, 3-OST-3; assay: isothermal titration calorimetry; type: binding

IC50 (3-OST-3 [2]; product inhibition, 8-mer 1 sulfation) [nM]	Kd (3-OST-3 [3]) [nM]	IC50 (3-OST-3 [2]; substrate inhibition, compound is itself slowly sulfated) [nM]	IC50 (3-OST-3 [2]; product inhibition) [nM]	Structure (SMILES)	crystal structure of ternary complex, 2.34 Å (3-OST-3 [1])
				CC(=O)N[C@H]1[C@@H](O[C@H]2[C@H](O)[C@@H](O)[C@H](O[C@H]3[C@H](O)[C@@H](NS(=O)(=O)O)[C@@H](O[C@H]4[C@H](O)[C@@H](OS(=O)(=O)O)[C@H](O[C@H]5[C@H](O)[C@@H](NS(=O)(=O)O)[C@@H](O[C@H]6[C@H](O)[C@@H](OS(=O)(=O)O)[C@H](O[C@H]7[C@H](O)[C@@H](NS(=O)(=O)O)[C@@H](O[C@H]8[C@H](O)[C@@H](O)[C@H](Oc9ccc([N+](=O)[O-])cc9)O[C@@H]8C(=O)O)O[C@@H]7CO)O[C@H]6C(=O)O)O[C@@H]5CO)O[C@H]4C(=O)O)O[C@@H]3CO)O[C@@H]2C(=O)O)O[C@H](CO)[C@@H](O)[C@@H]1O [8-mer 1]	crystal structures of 3-OST-3 in the presence of PAP, the sulfo donor product analog
~1000	74000			CC(=O)N[C@H]1[C@@H](O[C@H]2[C@H](O)[C@@H](O)[C@H](O[C@H]3[C@H](O)[C@@H](NS(=O)(=O)O)[C@@H](O[C@H]4[C@H](O)[C@@H](OS(=O)(=O)O)[C@H](O[C@H]5[C@H](OS(=O)(=O)O)[C@@H](NS(=O)(=O)O)[C@@H](O[C@H]6[C@H](O)[C@@H](OS(=O)(=O)O)[C@H](O[C@H]7[C@H](O)[C@@H](NS(=O)(=O)O)[C@@H](O[C@H]8[C@H](O)[C@@H](O)[C@H](Oc9ccc([N+](=O)[O-])cc9)O[C@@H]8C(=O)O)O[C@@H]7CO)O[C@H]6C(=O)O)O[C@@H]5CO)O[C@H]4C(=O)O)O[C@@H]3CO)O[C@@H]2C(=O)O)O[C@H](CO)[C@@H](O)[C@@H]1O [8-mer 2]	
	10000	150		CC(=O)N[C@H]1[C@@H](O[C@H]2[C@H](O)[C@@H](O)[C@H](O[C@H]3[C@H](O)[C@@H](NS(=O)(=O)O)[C@@H](O[C@H]4[C@H](O)[C@@H](OS(=O)(=O)O)[C@H](O[C@H]5[C@H](O)[C@@H](NS(=O)(=O)O)[C@@H](O[C@H]6[C@H](O)[C@@H](OS(=O)(=O)O)[C@H](O[C@H]7[C@H](O)[C@@H](NS(=O)(=O)O)[C@@H](O[C@H]8[C@H](O)[C@@H](O)[C@H](Oc9ccc([N+](=O)[O-])cc9)O[C@@H]8C(=O)O)O[C@@H]7COS(=O)(=O)O)O[C@H]6C(=O)O)O[C@@H]5COS(=O)(=O)O)O[C@H]4C(=O)O)O[C@@H]3COS(=O)(=O)O)O[C@@H]2C(=O)O)O[C@H](COS(=O)(=O)O)[C@@H](O)[C@@H]1O [8-mer 3]	
	4700		12	CC(=O)N[C@H]1[C@@H](O[C@H]2[C@H](O)[C@@H](O)[C@H](O[C@H]3[C@H](O)[C@@H](NS(=O)(=O)O)[C@@H](O[C@H]4[C@H](O)[C@@H](OS(=O)(=O)O)[C@H](O[C@H]5[C@H](OS(=O)(=O)O)[C@@H](NS(=O)(=O)O)[C@@H](O[C@H]6[C@H](O)[C@@H](OS(=O)(=O)O)[C@H](O[C@H]7[C@H](O)[C@@H](NS(=O)(=O)O)[C@@H](O[C@H]8[C@H](O)[C@@H](O)[C@H](Oc9ccc([N+](=O)[O-])cc9)O[C@@H]8C(=O)O)O[C@@H]7COS(=O)(=O)O)O[C@H]6C(=O)O)O[C@@H]5COS(=O)(=O)O)O[C@H]4C(=O)O)O[C@@H]3COS(=O)(=O)O)O[C@@H]2C(=O)O)O[C@H](COS(=O)(=O)O)[C@@H](O)[C@@H]1O [8-mer 4]	
